Assay results from patent US10828315B2 (Madrigal Pharmaceuticals, Inc., priority 2013, dated 2020).

Test system: HER2
Test: HER2 degradation assay with BT-474 cell line (Example 12, FACS)
Type: cell-based, human
Description: HER2 has emerged as a key target for anticancer drugs due to its intrinsic involvement in the phosphatidylinositol-3-kinase-Akt/protein kinase B (PI3K-Akt) and the mitogen-activated protein kinase (MAPK) pathways, both of which suppress apoptosis and promote tumor cell survival, gene transcription, angiogenesis, cellular proliferation, migration, mitosis, and differentiation. The degradation of HER2 is a measure of efficacy of anticancer therapeutics that target Hsp90. Accordingly, the SDC-TRAP molecules of the invention that comprise a binding moiety that binds Hsp90 were tested in the following HER2 degradation assay.
BT-474 cells (human breast cancer cell line ATCC HTB-20) were obtained from ATCC and seeded into 12-well tissue culture plates at 0.2×10^6/1.8 mL/well. […] Each test compound was titrated in 4-fold dilutions from 5 μM to 78 nM with DMSO and 200 μL of the titration was added to each well of the cell plate. The DMSO final concentration was 0.2%. Cells were incubated overnight at 37° C. in 5% CO2.
Media was decanted from the plate, cells were washed 1× in PBS. 400 μL trypsin (EDTA) per well was added, and the cells were incubated for 2 to 3 minutes. Cells were collected into FACS tubes containing 1 ml culture medium to neutralize the trypsin and were centrifuged for 5 minutes at 1200 rpm. Supernatant was decanted and the cells were resuspended in 5 μL FITC (anti HER2/nu)/200 μL staining buffer (1×PBS+1% FBS+0.05% Sodium Azide)/tube. Controls were 5 μL IgG isotype control and staining buffer only. Tubes were incubated for 30 minutes in the dark at room temperature. 1 mL staining buffer was added to each tube and the tubes were centrifuged for 6 minutes at 1200 rpm. The supernatant was decanted and 300 μL staining buffer was added to each tube, which was store at 4° C. fpr FACS (cytometer) analysis. The cytometer readout was normalized and the potency of each compound is evaluated with IC50 calculated with XLfit™ software.

Work on CCNC(=O)c1nnc(-c2cc(C(C)C)c(O)cc2O)n1-c1ccc(C(=O)N2CCN(c3ccc(OC(=O)Nc4cccc5c4CN(C4CCC(=O)NC4=O)C5=O)c(OC)c3)CC2)cc1 (centres unmarked) [SDC-TRAP-0173, 4-(4-(4-(3-(2,4-dihydroxy-5-isopropylphenyl)-5-(ethylcarbamoyl)-4H-1,2,4-triazol-4-yl)benzoyl)piperazin-1-yl)-2-methoxyphenyl (2-(2,6-dioxopiperidin-3-yl)-1-oxoisoindolin-4-yl)carbamate] yielded an IC50 of 323 nM.
For CCc1c2c(nc3ccc(OC(=O)N(C)CC(=O)N4CCC(CCn5ccc6cc(-n7c(O)nnc7-c7cc(C(C)C)c(O)cc7O)ccc65)CC4)cc13)-c1cc3c(c(=O)n1C2)COC(=O)[C@]3(O)CC [SDC-TRAP-0207, (S)-4,11-diethyl-4-hydroxy-3,14-dioxo-3,4,12,14-tetrahydro-1H-pyrano[3′,4′:6,7]indolizino[1,2-b]quinolin-9-yl (2-(4-(2-(5-(3-(2,4-dihydroxy-5-isopropylphenyl)-5-hydroxy-4H-1,2,4-triazol-4-yl)-1H-indol-1-yl)ethyl)piperidin-1-yl)-2-oxoethyl)(methyl)carbamate], the IC50 was over 5000 nM.
CCc1c2c(nc3ccc(OC(=O)N4CCC(CCc5ccc(-n6c(O)nnc6-c6cc(C(C)C)c(O)cc6O)cc5)CC4)cc13)-c1cc3c(c(=O)n1C2)COC(=O)[C@]3(O)CC [SDC-TRAP-0086, (S)-4,11-diethyl-4-hydroxy-3,14-dioxo-3,4,12,14-tetrahydro-1H-pyrano[3′,4′:6,7]indolizino[1,2-b]quinolin-9-yl 4-(4-(3-(2,4-dihydroxy-5-isopropylphenyl)-5-hydroxy-4H-1,2,4-triazol-4-yl)phenethyl)piperidine-1-carboxylate] showed an IC50 of over 5000 nM.
For CCNC(=O)c1nnc(-c2cc(C(C)C)c(O)cc2O)n1-c1ccc(C(=O)N2CCN(c3ccc(OC(=O)Nc4cccc5c4CN(C4CCC(=O)NC4=O)C5=O)cc3)CC2)cc1 (centres unmarked), the IC50 was 254 nM.
Work on CCc1c2c(nc3ccc(OC(=O)N4CCC(CN5CCN(Cc6ccc(-n7c(O)nnc7-c7cc(C(C)C)c(O)cc7O)cc6)CC5)CC4)cc13)-c1cc3c(c(=O)n1C2)COC(=O)[C@]3(O)CC [SDC-TRAP-0088] yielded an IC50 of 221 nM.
Work on CCc1c2c(nc3ccc(O)cc13)-c1cc3c(c(=O)n1C2)COC(=O)C3(CC)OC(=O)N1CCN(c2ccc(-n3c(O)nnc3-c3cc(C(C)C)c(O)cc3O)cc2)CC1 (centres unmarked) [SDC-TRAP-0081, 4,11-diethyl-9-hydroxy-3,14-dioxo-3,4,12,14-tetrahydro-1H-pyrano[3′,4′:6,7]indolizino[1,2-b]quinolin-4-yl-4-(4-(3-(2,4-dihydroxy-5-isopropylphenyl)-5-hydroxy-4H-1,2,4-triazol-4-yl)phenyl)piperazine-1-carboxylate] yielded an IC50 of 622 nM.
CCc1c2c(nc3ccc(O)cc13)-c1cc3c(c(=O)n1C2)COC(=O)[C@@]3(CC)OC(=O)N1CCC(N2Cc3ccc(-n4c(O)nnc4-c4cc(C(C)C)c(O)cc4O)cc3C2)CC1 [SDC-TRAP-0092, (S)-4,11-diethyl-9-hydroxy-3,14-dioxo-3,4,12,14-tetrahydro-1H-pyrano[3′,4′:6,7]indolizino[1,2-b]quinolin-4-yl 4-(5-(3-(2,4-dihydroxy-5-isopropylphenyl)-5-hydroxy-4H-1,2,4-triazol-4-yl)isoindolin-2-yl)piperidine-1-carboxylate] was tested, and the IC50 was 4710 nM.
Compound CCc1c2c(nc3ccc(OC(=O)N4Cc5ccc(-n6c(O)nnc6-c6cc(C(C)C)c(O)cc6O)cc5C4)cc13)-c1cc3c(c(=O)n1C2)COC(=O)C3(O)CC (centres unmarked) [SDC-TRAP-0083, 4,11-diethyl-4-hydroxy-3,14-dioxo-3,4,12,14-tetrahydro-1H-pyrano[3′,4′:6,7]indolizino[1,2-b]quinolin-9-yl 5-(3-(2,4-dihydroxy-5-isopropylphenyl)-5-hydroxy-4H-1,2,4-triazol-4-yl)isoindoline-2-carboxylate] has an IC50 of 1440 nM.
With CCNC(=O)c1nnc(-c2cc(C(C)C)c(O)cc2O)n1-c1ccc(Oc2ccc(C(=O)N(C)CCC(=O)OC3(CC)C(=O)OCc4c3cc3n(c4=O)Cc4c-3nc3ccc(O)cc3c4CC)cc2)cc1 (centres unmarked) [SDC-TRAP-0169, 4,11-diethyl-9-hydroxy-3,14-dioxo-3,4,12,14-tetrahydro-1H-pyrano[3′,4′:6,7]indolizino[1,2-b]quinolin-4-yl 3-(4-(4-(3-(2,4-dihydroxy-5-isopropylphenyl)-5-(ethylcarbamoyl)-4H-1,2,4-triazol-4-yl)phenoxy)-N-methylbenzamido)propanoate] the IC50 was 611 nM.
For CCc1c2c(nc3ccc(OC(=O)N4CCC(CN5CCC(Cc6ccc(-n7c(O)nnc7-c7cc(C(C)C)c(O)cc7O)cc6)CC5)CC4)cc13)-c1cc3c(c(=O)n1C2)COC(=O)C3(O)CC (centres unmarked) [SDC-TRAP-0067, 4,11-diethyl-4-hydroxy-3,14-dioxo-3,4,12,14-tetrahydro-1H-pyrano[3′,4′:6,7]indolizino[1,2-b]quinolin-9-yl 4-((4-(4-(3-(2,4-dihydroxy-5-isopropylphenyl)-5-hydroxy-4H-1,2,4-triazol-4-yl)benzyl)piperidin-1-yl)methyl)piperidine-1-carboxylate], the IC50 was 196 nM.
Work on CCc1c2c(nc3ccc(OC(=O)N(C)CCCN4CCN(Cc5ccc(-n6c(O)nnc6-c6cc(C(C)C)c(O)cc6O)cc5)CC4)cc13)-c1cc3c(c(=O)n1C2)COC(=O)[C@]3(O)CC [SDC-TRAP-0065, (S)-4,11-diethyl-4-hydroxy-3,14-dioxo-3,4,12,14-tetrahydro-1H-pyrano[3′,4′:6,7]indolizino[1,2-b]quinolin-9-yl (3-(4-(4-(3-(2,4-dihydroxy-5-isopropylphenyl)-5-hydroxy-4H-1,2,4-triazol-4-yl)benzyl)piperazin-1-yl)propyl)(methyl)carbamate] yielded an IC50 of 661 nM.
Work on CCc1c2c(nc3ccc(OC(=O)N4CCC(CCN5CCN(c6ccc(-n7c(O)nnc7-c7cc(C(C)C)c(O)cc7O)cc6)CC5)CC4)cc13)-c1cc3c(c(=O)n1C2)COC(=O)C3(O)CC (centres unmarked) [SDC-TRAP-0070, 4,11-diethyl-4-hydroxy-3,14-dioxo-3,4,12,14-tetrahydro-1H-pyrano[3′,4′:6,7]indolizino[1,2-b]quinolin-9-yl 4-(2-(4-(4-(3-(2,4-dihydroxy-5-isopropylphenyl)-5-hydroxy-4H-1,2,4-triazol-4-yl)phenyl)piperazin-1-yl)ethyl)piperidine-1-carboxylate] yielded an IC50 of 263 nM.
CCNC(=O)c1nnc(-c2cc(C(C)C)c(O)cc2O)n1-c1ccc(OC2CCN(C(=O)[C@@H]3CCCN3C(=O)O[C@]3(CC)C(=O)OCc4c3cc3n(c4=O)Cc4c-3nc3ccc(O)cc3c4CC)CC2)cc1 [SDC-TRAP-0214, (S)—(S)-4,11-diethyl-9-hydroxy-3,14-dioxo-3,4,12,14-tetrahydro-1H-pyrano[3′,4′:6,7]indolizino[1,2-b]quinolin-4-yl 2-(4-(4-(3-(2,4-dihydroxy-5-isopropylphenyl)-5-(ethylcarbamoyl)-4H-1,2,4-triazol-4-yl)phenoxy)piperidine-1-carbonyl)pyrrolidine-1-carboxylate] was tested, and the IC50 was over 5000 nM.
CCc1c2c(nc3ccc(OC(=O)N(C)CCNC(=O)c4nnc(-c5cc(C(C)C)c(O)cc5O)n4-c4cccnc4)cc13)-c1cc3c(c(=O)n1C2)COC(=O)C3(O)CC (centres unmarked) [SDC-TRAP-0112, 4,11-Diethyl-4-hydroxy-3,14-dioxo-3,4,12,14-tetrahydro-1H-pyrano[3′,4′:6,7]indolizino[1,2-b]quinolin-9-yl (2-(5-(2,4-dihydroxy-5-isopropylphenyl)-4-(pyridin-3-yl)-4H-1,2,4-triazole-3-carboxamido)ethyl)(methyl)carbamate] gave an IC50 of over 5000 nM.
CCc1c2c(nc3ccc(OC(C)=O)cc13)-c1cc3c(c(=O)n1C2)COC(=O)C3(CC)OC(=O)N1CCN(Cc2ccc(-n3c(O)nnc3-c3cc(C(C)C)c(O)cc3O)cc2)CC1 (centres unmarked) [SDC-TRAP-0074, 9-acetoxy-4,11-diethyl-3,14-dioxo-3,4,12,14-tetrahydro-1H-pyrano[3′,4′:6,7]indolizino[1,2-b]quinolin-4-yl 4-(4-(3-(2,4-dihydroxy-5-isopropylphenyl)-5-hydroxy-4H-1,2,4-triazol-4-yl)benzyl) piperazine-1-carboxylate] showed an IC50 of 4120 nM.
Compound CC(C)c1cc(-c2nnc(O)n2-c2ccc(CN3CCN(C(=O)Oc4ccc5c(c4)C[C@@H](CCCCCCCCC[S+]([O-])CCCC(F)(F)C(F)(F)F)[C@@H]4[C@@H]5CC[C@]5(C)[C@@H](O)CC[C@@H]45)CC3)cc2)c(O)cc1O (stereo partly drawn) [SDC-TRAP-0148, (7R,8R,9S,13S,14S,17S)-17-hydroxy-13-methyl-7-(9-((4,4,5,5,5-pentafluoropentyl)sulfinyl)nonyl)-7,8,9,11,12,13,14,15,16,17-decahydro-6H-cyclopenta[a]phenanthren-3-yl 4-(4-(3-(2,4-dihydroxy-5-isopropylphenyl)-5-hydroxy-4H-1,2,4-triazol-4-yl)benzyl)piperazine-1-carboxylate] has an IC50 of 3040 nM.
CCc1c2c(nc3ccc(O)cc13)-c1cc3c(c(=O)n1C2)COC(=O)C3(CC)OC(=O)C1CCN(C(=O)Cc2ccc(-n3c(O)nnc3-c3cc(C(C)C)c(O)cc3O)cc2)CC1 (centres unmarked) [SDC-TRAP-0097, 4,11-diethyl-9-hydroxy-3,14-dioxo-3,4,12,14-tetrahydro-1H-pyrano[3′,4′:6,7]indolizino[1,2-b]quinolin-4-yl 1-(2-(4-(3-(2,4-dihydroxy-5-isopropylphenyl)-5-hydroxy-4H-1,2,4-triazol-4-yl)phenyl)acetyl)piperidine-4-carboxylate] was tested, and the IC50 was over 5000 nM.
